The record followed here is patent publication US20260191853A1, “METHOD OF TREATING DRUG-INDUCED BRADYARRHYTHMIA” (OSAKA UNIVERSITY, priority 2022, published 2026).

Each structure is given as a SMILES string. Structures can show the parent of a compound that is named as a salt.

Data set [1] concerns Hartley guinea pigs. In words: Termination effect on fingolimod-induced bradyarrhythmia in isoflurane-anesthetized guinea pig model. Particulars: 30 minutes after initiation of administration of 0.1 mg/kg i.v.; FIG. 5. Format: in vivo. From the text:
Hartley guinea pigs (7 to 10 weeks old, male, available from Japan SLC, Inc.) were subjected to anesthetic induction by inhalation of isoflurane (available from Pfizer Japan Inc.), and each animal was held on an operating table having a heater function. The trachea was incised, and a tracheal cannula (KN-375, available from Natsume Seisakusho Co., Ltd.) was inserted. The tracheal cannula was connected to a ventilator (SN-480-7, available from Shinano Seisakusho Co., Ltd.), and artificial respiration was controlled by supplying 100% oxygen at a volume of 10 mL and a ventilation rate of 60 times/minute. Isoflurane (available from Pfizer Japan Inc.) anesthesia (about 1 to 4%, carrier gas: 100% oxygen) was used for maintenance of anesthesia. A catheter (BD intramedic polyethylene tubing PE50, available from Becton, Dickinson and Company) charged with 50 units/mL heparin (available from AY PHARMACEUTICALS CO., LTD.) was inserted into each of the carotid artery and the jugular vein and placed in the blood vessel. Systemic blood pressure was measured with a high-sensitivity DC amplifier (AD-611J, available from NIHON KOHDEN CORPORATION) via the catheter placed in the carotid artery. Electrodes were attached to the body surface, and a body surface electrocardiogram was measured with a high-sensitivity amplifier (AB-611J, available from NIHON KOHDEN CORPORATION). Blood pressure and electrocardiogram data were acquired and analyzed with PowerLab/Labchart system (available from ADInstruments). After stabilization of each parameter, fingolimod hydrochloride (available from Nissan Chemical Corporation) was continuously administered intravenously at 0.1 mg/kg for 10 minutes via the catheter placed in the jugular vein, followed by observation of the presence or absence of atrioventricular block. After confirmation that atrioventricular block continued for 10 minutes from the onset thereof, a solvent or compound (I) dihydrochloride was continuously administered intravenously at 0.1 mg/kg for 30 minutes, and the effect of terminating atrioventricular block was observed during the intravenous administration. The solvent used was saline (available from Otsuka Pharmaceutical Factory, Inc.). Data were recorded and blood was collected 10, 20, and 30 minutes after initiation of administration of compound (I) dihydrochloride and at the time of termination of atrioventricular block. The observation was terminated 30 minutes after initiation of the administration, and the animal was euthanized by exsanguination or intravenous administration of a large amount of saturated potassium chloride solution under isoflurane anesthesia. Data were analyzed for the presence or absence of the termination, the time required for the termination, and the plasma concentration of compound (I) at the time of termination. The plasma was collected by centrifuging the blood and cryopreserved at about −20° C. After thawing of the plasma, plasma drug concentrations were measured using LC/MS/MS after deproteinization with acetonitrile.
In Table 1, the measurements are shown as mean±standard error.

In data set [2] the test system is Hartley guinea pigs. In words: Preventive effect on fingolimod-induced bradyarrhythmia in isoflurane-anesthetized guinea pig model. Format: in vivo. Particulars: fingolimod hydrochloride 0.1 mg/kg i.v. over 10 min, compound (I) non-administration group. Here is the method:
A solvent or compound (I) (free form) was administered by oral gavage at a dose of 1, 3, or 10 mg/kg (volume: 5 mL/kg) to Hartley guinea pigs (7 to 10 weeks old, male, available from Japan SLC, Inc.). After completion of the administration, each animal was subjected to anesthetic induction by inhalation of isoflurane (available from Pfizer Japan Inc.), and the animal was held on an operating table having a heater function. The trachea was incised, and a tracheal cannula (KN-375, available from Natsume Seisakusho Co., Ltd.) was inserted. The tracheal cannula was connected to a ventilator (SN-480-7, available from Shinano Seisakusho Co., Ltd.), and artificial respiration was controlled by supplying 100% oxygen at a volume of 10 mL and a ventilation rate of 60 times/minute. The solvent used was 0.5 w/v % methyl cellulose 400 solution (available from FUJIFILM Wako Pure Chemical Corporation). Isoflurane (available from Pfizer Japan Inc.) anesthesia (about 1 to 4%, carrier gas: 100% oxygen) was used for maintenance of anesthesia. A catheter (BD intramedic polyethylene tubing PE50, available from Becton, Dickinson and Company) charged with 50 units/mL heparin (available from AY PHARMACEUTICALS CO., LTD.) was inserted into each of the carotid artery and the jugular vein and placed in the blood vessel. Systemic blood pressure was measured with a high-sensitivity DC amplifier (AD-611J, available from NIHON KOHDEN CORPORATION) via the catheter placed in the carotid artery. Electrodes were attached to the body surface, and a body surface electrocardiogram was measured with a high-sensitivity amplifier (AB-611J, available from NIHON KOHDEN CORPORATION). Blood pressure and electrocardiogram data were acquired and analyzed with PowerLab/Labchart system (available from ADInstruments). Analysis items are systolic blood pressure, diastolic blood pressure, average blood pressure, heart rate, P-wave width, PR interval, QRS width, QT interval, and corrected QT interval. Corrected QT interval was calculated using the fridericia formula (QTc=QT interval/RR interval^1/3). After stabilization of each parameter, fingolimod hydrochloride (synthesized with reference to WO 2000/027798) was continuously administered intravenously at 0.1 mg/kg for 10 minutes via the catheter placed in the jugular vein, followed by observation of the presence or absence of the onset of bradyarrhythmia for 60 minutes. The solvent used was saline (available from Otsuka Pharmaceutical Factory, Inc.). Data were recorded and blood was collected 5, 10, 15, 20, 30, and 60 minutes after initiation of administration of fingolimod hydrochloride. The observation was terminated 60 minutes after initiation of the administration, and the animal was euthanized by exsanguination or intravenous administration of a large amount of pentobarbital or saturated potassium chloride solution under isoflurane anesthesia. Data were analyzed for atrial beating rate over time, ventricular beating rate over time, electrocardiographic parameters, the presence or absence of the onset of atrioventricular block, and plasma concentrations of compound (I), fingolimod, and fingolimod phosphorylated form. The plasma was collected by centrifuging the blood and cryopreserved at about −20° C. After thawing of the plasma, plasma drug concentrations were measured using LC/MS/MS after deproteinization with acetonitrile.
Atrioventricular block was defined as follows.
Second-degree atrioventricular block: atrial activation wave (P wave) is normal, which is followed by or not followed by ventricular activation wave (QRS wave).
Third-degree atrioventricular block: there is no electrical conduction between the atrium and the ventricle, and atrial and ventricular activation waves are generated independently, resulting in atrioventricular dissociation.
In FIG. 1, the measurements are shown as mean±standard error. […]

The test system of data set [3] is Hartley guinea pigs. In words: Preventive effect on siponimod-induced bradyarrhythmia in isoflurane-anesthetized guinea pig model. The data set is classed as in vivo. Particulars: siponimod 0.01 mg/kg i.v. over 10 min, compound (I) non-administration group. As to the method:
A solvent or compound (I) (free form) was administered by oral gavage at a dose of 0.3. 1, or 3 mg/kg (volume: 5 mL/kg) to Hartley guinea pigs (7 to 10 weeks old, male, available from Japan SLC, Inc.). After completion of the administration, each animal was subjected to anesthetic induction by inhalation of isoflurane (available from Pfizer Japan Inc.), and the animal was held on an operating table having a heater function. The trachea was incised, and a tracheal cannula (KN-375, available from Natsume Seisakusho Co., Ltd.) was inserted. The tracheal cannula was connected to a ventilator (SN-480-7, available from Shinano Seisakusho Co., Ltd.), and artificial respiration was controlled by supplying 100% oxygen at a volume of 10 mL and a ventilation rate of 60 times/minute. The solvent used was 0.5 w/v % methyl cellulose 400 solution (available from FUJIFILM Wako Pure Chemical Corporation). Isoflurane (available from Pfizer Japan Inc.) anesthesia (about 1 to 4%, carrier gas: 100% oxygen) was used for maintenance of anesthesia. A catheter (BD intramedic polyethylene tubing PE50, available from Becton, Dickinson and Company) charged with 50 units/mL heparin (available from AY PHARMACEUTICALS CO., LTD.) was inserted into each of the carotid artery and the jugular vein and placed in the blood vessel. Systemic blood pressure was measured with a high-sensitivity DC amplifier (AD-611J, available from NIHON KOHDEN CORPORATION) via the catheter placed in the carotid artery. Electrodes were attached to the body surface, and a body surface electrocardiogram was measured with a high-sensitivity amplifier (AB-611J, available from NIHON KOHDEN CORPORATION). Blood pressure and electrocardiogram data were acquired and analyzed with PowerLab/Labchart system (available from ADInstruments). Analysis items are systolic blood pressure, diastolic blood pressure, average blood pressure, heart rate, P-wave width, PR interval, QRS width, QT interval, and corrected QT interval. Corrected QT interval was calculated using the Fridericia formula (QTc=QT interval/RR interval^1/3). After stabilization of each parameter, siponimod (synthesized according to WO 2017/120124) was continuously administered intravenously at 0.01 mg/kg for 10 minutes via the catheter placed in the jugular vein, followed by observation of the presence or absence of the onset of bradyarrhythmia for 60 minutes. The solvent used was a solution prepared by mixing of Polyethylene Glycol 400 (available from KANTO CHEMICAL CO., INC.) and dimethyl sulfoxide (available from FUJIFILM Wako Pure Chemical Corporation) at 9: 1 (volume ratio). Data were recorded and blood was collected 5, 10, 15, 20, 30, and 60 minutes after initiation of administration of siponimod. The observation was terminated 60 minutes after initiation of the administration, and the animal was euthanized by exsanguination or intravenous administration of a large amount of saturated potassium chloride solution under isoflurane anesthesia. Data were analyzed for atrial beating rate over time, ventricular beating rate over time, electrocardiographic parameters, the presence or absence of the onset of atrioventricular block, and plasma concentrations of compound (I) and siponimod. The plasma was collected by centrifuging the blood and cryopreserved at about −20° C. After thawing of the plasma, plasma drug concentrations were measured using LC/MS/MS after deproteinization with acetonitrile.
In FIG. 3, the measurements are shown as mean±standard error. Abbreviations, etc. are as follows. • (I): compound (I) • Atrioventricular block: the presence or absence of atrioventricular block • (x denotes second- or third-degree atrioventricular block) • PR & QRS: atrioventricular conduction time and ventricular activation time • QT & QTcF: ventricular repolarization time and heart rate-corrected ventricular repolarization time • Plasma concentration: the plasma concentration of siponimod or compound (I)

In data set [4] the test system is human iPS cell-derived atrial myocytes. In words: Siponimod-induced decrease in beating rate in human iPS cell-derived atrial myocytes (multi-electrode array). Format: cell-based. Particulars: 0.1 μM siponimod, observed 10 minutes. As to the method:
Cryopreserved human iPS cell-derived atrial myocytes (Human iPSC-derived atrial cardiomyocytes, available from Axol Bioscience) were thawed and seeded at 1,400,000 cells/well on a fibronectin-coated 6-well plate, followed by culturing in an incubator at 37° C. and 5% CO2 for 11 days. During the culture, the entire amount of medium was changed every other day. After the elapse of 11 days, human iPS cell-derived atrial myocytes that started beating were removed from the plate and recovered with TrypLE Select Enzyme (available from ThermoFisher Scientific). The atrial myocytes were seeded at 25,000 cells/2 μL on a fibronectin-coated 6-well MEA Chip (60-6well MEA200/30iR-Ti-tcr, available from Multi Channel Systems) and cultured in an incubator at 37° C. and 5% CO2 for one hour. Thereafter, 400 μL of medium was added and cultured in an incubator at 37° C. and 5% CO2 for 13 days. During the culture, a half amount of the medium was changed every other day. After the elapse of […], the MEA Chip was set in a multi-electrode array system (MEA2100, available from Multi Channel Systems) to thereby obtain extracellular potentials under spontaneous beating. […] Data were analyzed with Labchart System (available from ADInstruments).
In FIG. 6, the measurements are shown as mean±standard error, and (I) denotes compound (I).

Take `Cc1cc(CO)nc2cc3c(cc12)OC(C)(C)[C@H](O)[C@H]3NCCc1ccccc1` [compound (I) dihydrochloride]: the “fingolimod-induced bradycardia (heart rate, electrocardiogram)” value in the data set with Hartley guinea pigs [1] was “completely recovered”. On to `CCCCCCCCc1ccc(CCC(N)(CO)CO)cc1` [fingolimod, reference compound], for which, in the data set on Hartley guinea pigs [2], the “cases with fingolimod-induced atrioventricular block” value was “four out of four”. On to `CCc1cc(/C(C)=N/OCc2ccc(C3CCCCC3)c(C(F)(F)F)c2)ccc1CN1CC(C(=O)O)C1` [siponimod, reference compound], for which the “cases with siponimod-induced atrioventricular block” value in the data set on Hartley guinea pigs [3] was “three out of four”. Further, the “beating rate after addition of siponimod (sinus bradycardia)” value in data set [4] was no more than 50 beats/minute.
